Patent US20250136634A1, “CAP ANALOG AND USE THEREOF” (SHANGHAI HONGENE BIOTECH CORPORATION, priority 2021, published 2025)

Experiments:
Hela cells (ATCC CCL-2) = assay: Protein expression of Gaussia luciferase mRNA with various initial caps in transfected Hela cells; format: cell-based; details: 2 ug mRNA/well, 24 h after transfection, relative to ^m7GpppApG cap, mean±SD; for Relative Luciferase Unit RLU (after purification): HPLC-purified mRNA; for Relative Luciferase Unit RLU (no purification): unpurified mRNA
Description: In this example, Hela cells (ATCC CCL-2) were transfected with luciferase mRNAs (Gaussia luciferase) comprising various initial cap structures (the initial cap nucleotide structures comprised are: ^m7GpppApG, ^m7GpppA2′Ome pG, ^m7G3′OmepppA2′O-ethylpG, ^m7G2′OmepppA2′O-ethylpG, ^m7G3′OmepppA2′O-MOEpG, ^m7G2′O-mepppA2′O-MOEpG, ^m7Gppp(N6-methyladenine)2′O-MOEpG, ^m7G2′OmepppC2′O-ethylpC, ^m7G3′OmepppA2′O-MOEpU), and the signal intensity of luciferase was detected by microplate reader after 24 h. The fluorescence signal intensity was proportional to the abundance of protein expression. Hela cells were seeded at a density of 4×10^5/well in 6-well plates, and transfection was carried out when the cell density reached approximately 80%. Each well was transfected with 2 ug mRNA, and the transfection reagent was Lipofectamine MessengerMAX Transfection Reagent (Invitrogen), and the transfection steps were carried out according to the instructions. Twenty-four hours after transfection, the signal intensity of luciferase was measured on microplate reader. Measurement of luciferase fluorescence: the transfected cell culture solution was transferred to a 1.5 mL centrifuge tube and centrifuged, 10 ul of cell supernatant was taken and added to a 96-well plate, and 50 ul of 10 ng/ml substrate was added, and then the fluorescence intensity was measured on Synergy HI (BioTek) instrument. The expression of each mRNA was required to be measured 6 times and the expression results were relative values to the results of ^m7GpppApG cap.
The fluorescence signal intensity was proportional to the abundance of protein expression.
Hela cells were seeded at a density of 4×10^5/well in 6-well plates, and transfection was carried out when the cell density reached approximately 80%. Each well was transfected with 2 ug mRNA, and the transfection reagent was Lipofectamine MessengerMAX Transfection Reagent (Invitrogen), and the transfection steps were carried out according to the instructions. Twenty-four hours after transfection, the signal intensity of luciferase was measured on microplate reader. Measurement of luciferase fluorescence: the transfected cell culture solution was transferred to a 1.5 mL centrifuge tube and centrifuged, 10 ul of cell supernatant was taken and added to a 96-well plate, and 50 ul of 10 ng/ml substrate was added, and then the fluorescence intensity was measured on Synergy HI (BioTek) instrument. The expression of each mRNA was required to be measured 6 times and the expression results were relative values to the results of ^m7GpppApG cap.

INFB = assay: Immunogenicity: expression of intracellular inflammatory factor INFB by qPCR in Hela cells; format: cell-based; details: 2 ug mRNA/well, 24 hours after transfection, relative to ^m7GpppApG cap, mean±SD
Description: In this example, Hela cells (ATCC CCL-2) were transfected with luciferase mRNAs (Gaussia luciferase) comprising various initial cap structures (the initial cap nucleotide structures comprised are: ^m7GpppApG, ^m7GpppA2′Ome pG, ^m7G3′OmepppA2′O-ethylpG, ^m7G2′OmepppA2′O-ethylpG, ^m7G3′OmeppA2′O-MOEpG, ^m7G2′OmepppA2′O-MOEpG, ^m7Gppp(N6-methyladenine)2′O-MOEpG, ^m7G2′OmepppC2′O-ethylpC, ^m7G3′OmepppA2′O-MOEpU), and collected after 24 hours. The expression of intracellular inflammatory factors was detected, and the relative abundance of the factors is in proportional to the immunogenicity of the mRNA.
(§1) Hela cells were seeded at a density of 4×10^5/well in 6-well plates, and transfection was carried out when the cell density reached approximately 80%. Each well was transfected with 2 ug mRNA, and the transfection reagent was Lipofectamine MessengerMAX Transfection Reagent (Invitrogen), and the transfection steps were carried out according to the instructions. Twenty-four hours after transfection, the cells were collected and TRIzol was used to extract RNAs which were then reverse transcribed into cDNAs. The expression of intracellular inflammatory factors was detected using real-time quantitative fluorescent PCR with B-actin as the internal reference. The detection of each gene was repeated 3 times, and the result of the expression of each gene is expressed as the relative value to the result of ^m7GpppApG cap.
as §1, with “The expression of intracellular inflammatory factors was detected, and the relative abundant of the factors is in proportional to the immunogenicity of the mRNA. Hela” for “Hela”, “β-actin” for “B-actin”

[1] = tested on: Thermostable T7 RNA polymerase (NEB); details: Example 3, thermostable T7 RNA polymerase IVT at 50° C. for 2 hs, LC-MS
Description: The LC-MS analyses involved in determining capping efficiency in the following examples are as follows: • Equipment: Waters UPLC H-Class • Column: ACQUITY UPLC Oligonucleotide BEH C18, 2.1*150 mm • Column temperature: 75° C. • Mobile phase A: 200 mM hexafluoroisopropanol+8.15 mM triethylamine pH7.9 • Mobile phase B: methanol • Flow rate: 0.3 mL/min • Gradient:
Initial cap oligonucleotides are ^m7GpppApG, ^m7G pppA2′Ome PG (control), ^m7GBeta-D-LNApppA2′O-MOEpG, and ^m7GAlpha-L-LNApppA2′O-ethyl pG, respectively. • reacting at 50° C. for 2 hs, • adding DNase I (1U), and reacting at 37° C. for 30 mins. (5) Treatment with Antarctic Phosphatase:
For each tested initial cap oligonucleotide, the ratio of capped mRNA was assessed by analyzing liquid chromatography-mass spectrometry (LC-MS) results. In the experiment, a DNA probe complementary to the mRNA was used. Upon the hybridization of the DNA to the RNA, RNaseH specifically hydrolyzed the phosphodiester bond in the RNA to produce small fragments of RNAs with homogeneous 3′ end. The molecular weight and percentage of the small RNA fragments were determined by LC-MS, and were used to determine capping of the RNAs in the transcription reaction. Since the presence and absence of cap at 5′ end can be distinguished by the molecule weight, the capping efficiency can be determined via the molecule weight and percentage of trunked 5′ end-containing RNAs. In addition, from the calculation of the molecule weight, it can be determined that the caps added are the capping nucleotides.

[2] = Example 3 (IVT at 50° C.), β-actin reference

Row | Substance | Relative Luciferase Unit RLU (after purification) (Hela cells (ATCC CCL-2); Example 2) | Relative Luciferase Unit RLU (no purification) (Hela cells (ATCC CCL-2); Example 2) | Expression of INFB (INFB; Example 2, B-actin reference) | Relative Luciferase Unit RLU (after purification) (Hela cells (ATCC CCL-2); Example 3 (IVT at 50° C.)) | Relative Luciferase Unit RLU (no purification) (Hela cells (ATCC CCL-2); Example 3 (IVT at 50° C.)) | Capping efficiency [1] [%] | Expression of INFB (INFB; [2])
1 | ^m7G2′OmepppA2′O-MOEpG | 5.11 ± 0.17 | 4.47 ± 0.07 | 0.24 ± 0.03 |  |  |  | 
2 | ^m7G2′OmepppA2′O-ethylpG | 3.34 ± 0.01 | 2.83 ± 0.11 | 0.42 ± 0.02 |  |  |  | 
3 | ^m7G2′OmepppC2′O-ethylpC | 1.71 ± 0.18 | 1.33 ± 0.06 | 0.78 ± 0.01 |  |  |  | 
4 | ^m7G3′OmepppA2′O-MOEpG | 4.18 ± 0.16 | 3.3 ± 0.13 | 0.41 ± 0.01 |  |  |  | 
5 | ^m7G3′OmepppA2′O-MOEpU | 1.76 ± 0.12 | 1.32 ± 0.06 | 1.18 ± 0.08 |  |  |  | 
6 | ^m7G3′OmepppA2′O-ethylpG | 2.73 ± 0.03 | 2.63 ± 0.15 | 0.47 ± 0.01 |  |  |  | 
7 | ^m7GAlpha-L-LNApppA2′O-ethyl pG |  |  |  | 2.97 ± 0.09 | 2.67 ± 0.02 | 63 | 0.11 ± 0.03
8 | ^m7GBeta-D-LNApppA2′O-MOEpG |  |  |  | 3.45 ± 0.01 | 3 ± 0.12 | 70 | 0.09 ± 0.02
9 | ^m7Gppp(N6-methyladenine)2′O-MOEpG | 3.23 ± 0.07 | 2.98 ± 0.02 | 0.46 ± 0.02 |  |  |  | 
10 | ^m7GpppA2′Ome pG [reference compound] | 3.3 ± 0.13 | 2.94 ± 0.02 | 0.61 ± 0.01 | 1.56 ± 0.11 | 1.25 ± 0.11 | 95 | 0.63 ± 0.04
11 | ^m7GpppApG [reference compound] | 1 ± 0.19 | 1 ± 0.02 | 1 ± 0.08 | 1 ± 0.12 | 1 ± 0.02 | 93 | 1 ± 0.13
